Values quoted from earlier work, collected in patent US12062414B1, “System and method for predicting susceptibility of genus Klebsiella to amikacin” (Peking Union Medical College Hospital, Chinese Academy of …, priority 2023, dated 2024).

Test system: carbapenem-resistant Klebsiella pneumoniae
Settings: isolated from 2014-2017; data from 252/403

NCC[C@H](O)C(=O)N[C@@H]1C[C@H](N)[C@@H](O[C@H]2O[C@H](CN)[C@@H](O)[C@H](O)[C@H]2O)[C@H](O)[C@H]1O[C@H]1O[C@H](CO)[C@@H](O)[C@H](N)[C@H]1O [amikacin]
resistance rate to amikacin: 62.5%
